From PMC2990348 (Journal of medicinal chemistry, 2010)
“Also recorded” adds a separate entry of the source. Like-named read-outs stand apart in the source and are kept apart here.

What was measured:
in vitro = details: human
poliovirus (PV) [1] = experiment: in vitro; details: human
poliovirus (PV) [2] = test system: poliovirus (PV)
DENV2 replicon = type: cell-based, dengue virus type 2
[3] = test system: dengue virus type 2 (DENV2); details: read-out: IC50, dengue virus type 2; cited from earlier work
PV RdRP [4] = biological target: T1, PV RdRP (Poliovirus type 1, UniProt P03300); type: biochemical
PV RdRP (3D^pol) [5] = biological target: T2, PV RdRP (3D^pol) (Poliovirus type 1, UniProt P03300); type: biochemical
PV RdRP (3D^pol) [6] = biological target: T2, PV RdRP (3D^pol); type: biochemical; remark: listed apart in the source
PV RdRP [7] = biological target: T1, PV RdRP; details: cited from earlier work
hepatitis C virus (HCV) = details: read-out: IC50, replication of hepatitis C virus; cited from earlier work

T2 sequence (P03300 1749-2209 limits assumed): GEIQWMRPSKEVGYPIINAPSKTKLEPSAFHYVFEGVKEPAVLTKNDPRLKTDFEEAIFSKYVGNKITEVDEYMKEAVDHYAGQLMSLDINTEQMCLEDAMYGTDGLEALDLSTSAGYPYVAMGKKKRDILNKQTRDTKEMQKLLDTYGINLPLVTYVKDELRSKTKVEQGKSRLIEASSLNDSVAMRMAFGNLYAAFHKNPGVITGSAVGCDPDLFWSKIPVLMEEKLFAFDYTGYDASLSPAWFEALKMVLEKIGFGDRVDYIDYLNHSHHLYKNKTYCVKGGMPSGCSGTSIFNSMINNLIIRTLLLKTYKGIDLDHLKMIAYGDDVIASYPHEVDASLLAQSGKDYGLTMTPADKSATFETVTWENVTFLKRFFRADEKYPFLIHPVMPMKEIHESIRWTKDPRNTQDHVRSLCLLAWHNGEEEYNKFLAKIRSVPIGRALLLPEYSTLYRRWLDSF
T1 sequence (P03300 1749-2209 limits assumed): as above

Molecule `Cc1ncnc2c1ccn2[C@@H]1O[C@H](CO)[C@@H](O)[C@H]1O` [Compound 6, 4-Methyl-7-β-D-ribofuranosylpyrrolo[2,3-d]pyrimidine] has a viability at 100 µM (in vitro) of 33% and a selectivity ratio (poliovirus (PV) [1]) greater than 100.

In the case of `COC[C@H]1O[C@@H](n2ccc3c(C)ncnc32)[C@H](O)[C@@H]1O` [Compound 7, 4-Methyl-7-(5'-O-methyl-β-D-ribofuranosyl)pyrrolo[2,3-d]pyrimidine], the “Antiviral activity in plaque assays of infectivity” value (poliovirus (PV) [2]) is reported as “eliminated the antiviral effect”, the “Reduction of biological activity on methylation of the 5'-alcohol of 6” value (poliovirus (PV) [2]) is reported as “over 1000 fold” and the “Inhibition of DENV2 replicon activity” value (DENV2 replicon) is reported as “essentially no inhibition”. For the same molecule, the “Cytotoxic effects to HeLa cells after 7 h” value (from here on “Cytotoxic effects”) (HeLa S3 cells) was “little cytotoxicity” and the “Cytotoxicity” value (HeLa S3 cells) was “essentially no cytotoxicity”.

For `C#C[C@@]1(O)[C@H](O)[C@@H](CO)O[C@H]1n1ccc2c(N)ncnc21` [NITD008, 7-deaza-2'-C-ethynyladenosine], the IC50 [3] is given as 640 nM.

In the case of `Nc1ncnc2c1ccn2[C@@H]1O[C@H](CO)[C@@H](O)[C@H]1O` [Compound 3, tubercidin, reference compound], the “Cytotoxic effects” value (HeLa S3 cells) is reported as “pronounced effects”.

In the case of `Cc1ncnc2c1ncn2[C@@H]1O[C@H](COP(=O)(O)OP(=O)(O)OP(=O)(O)O)[C@@H](O)[C@H]1O` [Compound 8, 6-methyl-9-β-D-ribofuranosylpurine 5'-triphosphate], the “Efficiency kpol/Kd,app” value (PV RdRP [4]) is reported as 60000 M⁻¹ s⁻¹, the “Efficiency relative to natural ATP” value (PV RdRP [4]) is reported as “only ten-fold lower than natural ATP” and the “Incorporation opposite C by PV RdRP, rate” value (PV RdRP [4]) is reported as “extremely slow”. For the same molecule, the “Substrate of PV RdRP” value (PV RdRP [4]) was “robust substrates”, the kpol (PV RdRP [4]) was 11 ± 0.3 s⁻¹ and the “Incorporation efficiency across from uracil” value (PV RdRP (3D^pol) [5]) was “comparable to natural ATP”. The “Incorporation opposite adenine and guanine” value (PV RdRP (3D^pol) [5]) was “almost no incorporation”, the “RNA chain termination (extension of RNA oligomers to +4)” value (PV RdRP (3D^pol) [5]) was “neither of these compounds functions as a RNA chain terminator” and the “Inhibition of PV RdRP” value (PV RdRP (3D^pol) [6]) was “neither 8 nor 9 inhibit PV RdRP”. The “kcat compared with natural correct nucleotides” value (PV RdRP (3D^pol) [6]) was “increases in kcat”.

In the case of `NC(=O)c1ncn([C@@H]2O[C@H](COP(=O)(O)OP(=O)(O)OP(=O)(O)O)[C@@H](O)[C@H]2O)n1` [RTP, ribavirin triphosphate], the “Efficiency relative to 8 or 9” value (PV RdRP [4]) is listed as “approximately three orders magnitude lower”, the “Efficiency kpol/Kd,app” value (PV RdRP [7]) is listed as 30 M⁻¹ s⁻¹ and the kpol (PV RdRP [7]) is listed as 0.014 ± 0.001 s⁻¹.

With `Cc1ncnc2c1ncn2[C@@H]1O[C@H](CO)[C@@H](O)[C@H]1O` [Compound 2, 6-methyl-9-β-D-ribofuranosylpurine, reference compound] the “Cytotoxic effects” value (HeLa S3 cells) was “pronounced effects” and the “Toxicity relative to 3 (fold less toxic)” value (HeLa S3 cells; human) was ~ 5 fold.

For `C[C@@]1(O)[C@H](O)[C@@H](CO)O[C@H]1n1ccc2c(N)ncnc21` [7-deaza-2'-C-methyladenosine], the IC50 (hepatitis C virus (HCV)) is listed as 108 nM.

With `Cc1ncnc2c1ccn2[C@@H]1O[C@H](COP(=O)(O)OP(=O)(O)OP(=O)(O)O)[C@@H](O)[C@H]1O` [Compound 9, 4-Methyl-7-β-D-ribofuranosylpyrrolo[2,3-d]pyrimidine 5'-triphosphate] the “Efficiency kpol/Kd,app” value (PV RdRP [4]) was 50000 M⁻¹ s⁻¹, the “Efficiency relative to natural ATP” value (PV RdRP [4]) was “only ten-fold lower than natural ATP” and the “Incorporation opposite C by PV RdRP, rate” value (PV RdRP [4]) was “extremely slow”. For the same molecule, the “Substrate of PV RdRP” value (PV RdRP [4]) was “robust substrates; also recorded: efficient substrate”, the kpol (PV RdRP [4]) was 6 ± 0.5 s⁻¹ and the “Incorporation efficiency across from uracil” value (PV RdRP (3D^pol) [5]) was “comparable to natural ATP”. For the same molecule, the “Incorporation opposite adenine and guanine” value (PV RdRP (3D^pol) [5]) was “almost no incorporation”, the “RNA chain termination (extension of RNA oligomers to +4)” value (PV RdRP (3D^pol) [5]) was “neither of these compounds functions as a RNA chain terminator” and the “Inhibition of PV RdRP” value (PV RdRP (3D^pol) [6]) was “neither 8 nor 9 inhibit PV RdRP”. The “kcat compared with natural correct nucleotides” value (PV RdRP (3D^pol) [6]) was “increases in kcat”.

For `Cc1ccnc2c1ncn2[C@@H]1O[C@H](CO)[C@@H](O)[C@H]1O` [Compound 4, 7-Methyl-3-β-D-ribofuranosyl-3H-imidazo[4,5-b]pyridine], the “Activity against PV” value (poliovirus (PV) [2]) was “inactive”, the “Inhibition of DENV2 replicon activity” value (DENV2 replicon) was “essentially no inhibition” and the “Cytotoxic effects” value (HeLa S3 cells) was “little cytotoxicity”. The “Cytotoxicity” value (HeLa S3 cells) was “essentially no cytotoxicity”.

In the case of `Nc1ncnc2c1ncn2[C@@H]1O[C@H](COP(=O)(O)OP(=O)(O)OP(=O)(O)O)[C@@H](O)[C@H]1O` [ATP, adenosine triphosphate], the “Efficiency kpol/Kd,app” value (PV RdRP [7]) is listed as 650000 M⁻¹ s⁻¹ and the kpol (PV RdRP [7]) is listed as 87 ± 4 s⁻¹.

For `Cc1nccc2c1ncn2[C@@H]1O[C@H](CO)[C@@H](O)[C@H]1O` [Compound 5, 3-deaza-6-methyl-9-β-D-ribofuranosylpurine], the “Activity against PV” value (poliovirus (PV) [2]) was “inactive”, the “Antiviral activity in plaque assays of infectivity” value (poliovirus (PV) [2]) was “essentially inactive” and the “Inhibition of DENV2 replicon activity” value (DENV2 replicon) was “essentially no inhibition”. For the same molecule, the “Cytotoxicity” value (HeLa S3 cells) was “essentially no cytotoxicity”.
